From US20100292233A1, “DIHYDRO-1H-PYRROLO[1,2-A]INDOL-1-YL CARBOXYLIC ACID DERIVATIVES WHICH ACT AS S1P1 AGONISTS” (ARENA PHARMACEUTICALS, INC., priority 2008, published 2010)
“Also recorded” adds a separate entry of the source.

Tests used:
S1P3 receptor = molecular target: T1, S1P3 receptor (Homo sapiens, UniProt Q99500); experiment: Cellular/functional Ca2+ assay for agonist activity on S1P3 receptor; format: cell-based; settings: human neuroblastoma cells; FIG. 1; done by Caliper LifeSciences
T1 construct: a human neuroblastoma cell line which endogenously expresses S1P3 (predominantly), S1P2 and S1P5 receptors
Method: Of these, S1P3 and S1P2 receptors respond to agonists, such as S1P, with an intracellular calcium increase. […] Such an assay can be performed commercially, e.g. by Caliper LifeSciences (Hopkinton, Mass.).
Assay: Compound 2 (Enantiomer 1) was assayed for agonist activity on S1P3 receptor by Caliper LifeSciences. Human neuroblastoma cells were washed and resuspended in physiological buffer. The cells were then loaded with dye that measures intracellular calcium. S1P was used as a reference agonist. Compound 2 (Enantiomer 1) was included in the assay as a test compound. After addition of […] or Compound 2 (Enantiomer 1), fluorescence was measured at 485 nm excitation/525 nm emission every 2 sec for at least 60 sec. Calcium ionophore A23187 was then added as an internal positive control.

S1P1 receptor = molecular target: T2, S1P1 receptor (Homo sapiens, UniProt P21453); experiment: HTRF assay for direct cAMP measurement (S1P1 receptor agonism); format: cell-based; settings: recombinant CHO-K1 cells stably transfected with S1P1 receptor; decrease of cAMP
T2 construct: expressed in transfected cells; host or cells: CHO-K1 (ATCC CCL-61)
Description: Compounds were screened for S1P1 receptor agonism (e.g., human S1P1 receptor) using the HTRF® assay for direct cAMP measurement (Gabriel et al, ASSAY and Drug Development Technologies, 1:291-303, 2003) and recombinant CHO-K1 cells stably transfected with S1P1 receptor. CHO-K1 cells were obtained from ATCC® (Manassas, Va.; Catalog #CCL-61). An agonist of the S1P1 receptor was detected in the HTRF® assay for direct cAMP measurement as a compound which decreased cAMP concentration. The HTRF® assay also was used to determine EC50 values for S1P1 receptor agonists.
Principle of the assay: The HTRF® assay kit was purchased from Cisbio-US, Inc. (Bedford, Mass.; Catalog #62AM4PEC). The HTRF® assay supported by the kit is a competitive immunoassay between endogenous cAMP produced by the CHO-K1 cells and tracer cAMP labeled with the dye d2. The tracer binding is visualized by a monoclonal anti-cAMP antibody labeled with Cryptate. The specific signal (i.e., fluorescence resonance energy transfer, FRET) is inversely proportional to the concentration of unlabeled cAMP in the standard or sample.
Standard curve: The fluorescence ratio (665 nm/620 nm) of the standards (0.17 to 712 nM cAMP) included in the assay was calculated and used to generate a cAMP standard curve according to the kit manufacturer's instructions. The fluorescence ratio of the samples (test compound or compound buffer) was calculated and used to deduce respective cAMP concentrations by reference to the cAMP standard curve.
Setup of the assay: The HTRF® assay was carried out using a two-step protocol essentially according to the kit manufacturer's instructions, in 20 μl total volume per well, 384-well plate format (ProxiPlates; PerkinElmer, Fremont, Calif.; catalog #6008280). To each of the experimental wells was transferred 1500 recombinant CHO-K1 cells in 5 μl phosphate buffered saline containing calcium chloride and magnesium chloride (“PBS+”; Invitrogen, Carlsbad, Calif.; catalog #14040) supplemented with IBMX (250 μM) and rolipram (20 μM) (phosphodiesterase inhibitors; Sigma-Aldrich, St. Louis, Mo.; catalog #I5879 and catalog #R6520, respectively), followed by test compound in 5 μl compound buffer (PBS+ supplemented with […] NKH477 (water-soluble forskolin derivative; SignaGen Laboratories, Gaithersburg, Md.; catalog #PKI-NKH477-010)) or 5 μl compound buffer. The plate was then incubated at room temperature for 1 hour. To each well was then added 5 μl cAMP-d2 conjugate in lysis buffer and 5 μl Cryptate conjugate in lysis buffer according to the kit manufacturer's instructions. The plate was then further incubated at room temperature for 1 hour, after which the assay plate was read.
Assay readout: HTRF® readout was accomplished using a PHERAstar (BMG LABTECH Inc., Durham, N.C.) or EnVision™ (PerkinElmer, Fremont, Calif.) microplate reader.

C57BL/6 mice = settings: prophylactic oral administration, 1 mg/kg, three times a week; cited from earlier work
[1] = system: patients with multiple sclerosis; settings: Phase II, relapsing-remitting multiple sclerosis; cited from earlier work
mice = settings: oral administration to mice; cited from earlier work
[2] = short-term high dose; cited from earlier work
[3] = attributed to agonism of the S1P3 receptor; cited from earlier work
BALB/c mice = experiment: Mouse peripheral lymphocyte lowering (PLL) assay; format: in vivo; settings: 1 mg/kg i.v., 5 hours post dose, FIG. 2
Method: Animals: Male BALB/c mice (6 to 7 weeks of age at start of study) (Charles River Laboratories, Wilmington, Mass.) were housed four per cage and maintained in a humidity—(40-60%) and temperature—(68-72° F.) controlled facility on a 12 hr:12 hr light/dark cycle (lights on at 6:30 am) with free access to food (Harlan Teklad, Orange, Calif., Rodent Diet 8604) and water. Mice were allowed one week of habituation to the animal facility before testing.
PLL Assay: Mice were administered via i.v. one of the following: vehicle (100% PEG400) or 1 mg/kg Compound 1 in vehicle, in a total volume of 5 mL/kg. Peripheral blood samples were collected at 5 hours post dose. The mice were anesthetized with isoflurane and bled retro-orbitally (300 μL) into 1.5 ml EDTA tubes. A complete […] (CBC) (including lymphocyte count) was obtained using CELL-DYN® 3700 (Abbott Laboratories, Abbott Park, Ill.). Results are presented in FIG. 2, in which the peripheral blood lymphocyte (PBL) count is shown for the 5 hour group.

T2 sequence (P21453 whole entry): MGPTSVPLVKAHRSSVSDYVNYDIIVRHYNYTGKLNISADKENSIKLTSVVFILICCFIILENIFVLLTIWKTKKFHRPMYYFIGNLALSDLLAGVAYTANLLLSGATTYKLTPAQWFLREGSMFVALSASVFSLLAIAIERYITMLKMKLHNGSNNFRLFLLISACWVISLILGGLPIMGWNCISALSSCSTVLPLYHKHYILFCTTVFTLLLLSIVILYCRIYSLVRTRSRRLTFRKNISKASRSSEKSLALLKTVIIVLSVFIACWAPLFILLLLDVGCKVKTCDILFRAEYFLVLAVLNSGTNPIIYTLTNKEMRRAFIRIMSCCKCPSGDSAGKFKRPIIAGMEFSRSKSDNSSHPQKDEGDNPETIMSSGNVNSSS
T1 sequence (Q99500 whole entry): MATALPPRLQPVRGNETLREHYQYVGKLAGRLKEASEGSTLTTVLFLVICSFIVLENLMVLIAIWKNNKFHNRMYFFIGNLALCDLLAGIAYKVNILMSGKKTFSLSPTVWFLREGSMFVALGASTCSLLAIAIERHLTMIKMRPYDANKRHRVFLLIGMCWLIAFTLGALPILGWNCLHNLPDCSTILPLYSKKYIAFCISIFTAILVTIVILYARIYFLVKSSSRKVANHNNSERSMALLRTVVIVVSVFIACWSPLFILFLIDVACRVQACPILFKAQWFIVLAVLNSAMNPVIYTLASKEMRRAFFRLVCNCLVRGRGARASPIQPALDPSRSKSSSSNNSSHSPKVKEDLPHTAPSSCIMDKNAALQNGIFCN

Question: With CNc1ccc2oc(C[C@H]3O[C@@]4(CC[C@H]3C)O[C@H]([C@H](C)C(=O)c3ccc[nH]3)[C@H](C)C[C@H]4C)nc2c1C(=O)O [Compound A23187, reference compound] as the compound, how does the “agonist activity on S1P3 receptor (intracellular calcium)” value (S1P3 receptor) read?
Answer: pronounced agonist activity

Question: With O=C(O)CC1CCn2c1cc1cc(-c3noc(-c4ccc5c(c4)OC(F)(F)O5)n3)ccc12 (stereo not shown) [Compound 8, 2-(7-(5-(2,2-Difluorobenzo[d][1,3]dioxol-5-yl)-1,2,4-oxadiazol-3-yl)-2,3-dihydro-1H-pyrrolo[1,2-a]indol-1-yl)acetic Acid] as the compound, how does the EC50 (S1P1 receptor) read?
Answer: 41 nM

Question: With N#Cc1cc(OC(F)(F)F)cc(-c2nc(-c3ccc4c(c3)cc3n4CCC3CC(=O)O)no2)c1 (racemic) [Compound 2, 2-(7-(5-(3-Cyano-5-(trifluoromethoxy)phenyl)-1,2,4-oxadiazol-3-yl)-2,3-dihydro-1H-pyrrolo[1,2-a]indol-1-yl)acetic Acid] as the compound, how does the EC50 (S1P1 receptor) read?
Answer: 10 nM

Question: Which “development of EAMG” value (C57BL/6 mice) does the source give for CCCCCCCCc1ccc(CCC(N)(CO)CO)cc1 [FTY720] here?
Answer: completely prevented the development of experimental autoimmune myasthenia gravis (EAMG)

Question: What about the “MRI lesions and clinical disease activity” value [1] of the same compound?
Answer: reduce the number of lesions detected by magnetic resonance imaging (MRI) and clinical disease activity

Question: What about the VEGF-induced vascular permeability (mice) of the same compound?
Answer: potently blocked VEGF-induced vascular permeability

Question: And the ocular infiltrates [2]?
Answer: rapidly reduced ocular infiltrates

Question: And the “adverse event in clinical trials” value [3]?
Answer: transient asymptomatic bradycardia

Question: Which results are given for O=C(O)CC1CCn2c1cc1cc(-c3noc(-c4cc(C(F)(F)F)cc(C(F)(F)F)c4)n3)ccc12 (stereo not shown) [Compound 1, 2-(7-(5-(3,5-Bis(trifluoromethyl)phenyl)-1,2,4-oxadiazol-3-yl)-2,3-dihydro-1H-pyrrolo[1,2-a]indol-1-yl)acetic Acid]?
Answer: EC50 (S1P1 receptor): 7.2 nM; peripheral lymphocyte lowering (peripheral blood lymphocyte count vs vehicle) (BALB/c mice): exhibited activity for inducing peripheral lymphocyte lowering

Question: Which EC50 (S1P1 receptor) does the source give for N#Cc1cc(-c2nc(-c3ccc4c(c3)cc3n4CCC3CC(=O)O)no2)ccc1OCC(F)(F)F (stereo not shown) [Compound 15, 2-(7-(5-(3-Cyano-4-(2,2,2-trifluoroethoxy)phenyl)-1,2,4-oxadiazol-3-yl)-2,3-dihydro-1H-pyrrolo[1,2-a]indol-1-yl)acetic Acid] here?
Answer: 6.3 nM

Question: For O=C(O)CC1CCn2c1cc1cc(-c3noc(-c4cc(Br)cc(OC(F)(F)F)c4)n3)ccc12 (stereo not shown) [Compound 18, 2-(7-(5-(3-Bromo-5-(trifluoromethoxy)phenyl)-1,2,4-oxadiazol-3-yl)-2,3-dihydro-1H-pyrrolo[1,2-a]indol-1-yl)acetic Acid], which EC50 (S1P1 receptor) is on record?
Answer: 13 nM

Question: For N#Cc1cc(OC(F)(F)F)cc(-c2nc(-c3ccc4c(c3)cc3n4CCC3CC(=O)O)no2)c1 (single isomer, unassigned) [Compound 2 (Enantiomer 1), 2-(7-(5-(3-Cyano-5-(trifluoromethoxy)phenyl)-1,2,4-oxadiazol-3-yl)-2,3-dihydro-1H-pyrrolo[1,2-a]indol-1-yl)acetic Acid], which “agonist activity on S1P3 receptor (intracellular calcium)” value (S1P3 receptor) is on record?
Answer: substantially little to no activity; also recorded: no or substantially no agonist activity
